Experimental data taken from patent US12473273B2, “Quinoline compounds and compositions for inhibiting EZH2” (Novartis AG, priority 2020, dated 2025).

Key:
[1] = target: wild type PRC2 (wtPRC2) complex (Homo sapiens, UniProt Q15910); assay: EZH2 LC-MS Assay; type: biochemical; conditions: 40 nM wtPRC2 complex, 30 uM SAM, 1.5 uM H3K27me1 and 3 uM H3K27me3 peptides; SAH production
Procedure: Representative compounds of the invention were serially and separately diluted 3-fold in DMSO to obtain twelve concentrations. Then the test compounds at each concentration (120 nL of each) were transferred by Mosquito into a 384-well Perkin Elmer ProxiPlate 384 plus plates. Solutions (6 μL) of 80 nM wild type PRC2 (wtPRC2) complex and 60 µM SAM in reaction buffer (20 mM Tris, pH 8.0, 0.1% BSA, 0.01% Triton, 0.5 mM DTT) were added to the wells that were then incubated with the test compound for 20 min. A 6 μL solution of 3 µM of the substrate peptide H3K27me1 (histone H3 [21-44]-K27me1-biotin) and 6 μM regulatory peptide H3K27me3 (histone H3 [21-44]-K27me3) in reaction buffer was added to initiate each reaction. The final components in the reaction solution include 40 nM wtPRC2 complex, 30 µM SAM, 1.5 µM H3K27me1 and 3 µM H3K27me3 peptides with varying concentration of the compounds. A positive control consisted of the enzyme at 40 nM, 30 μM SAM, 1.5 µM H3K27me1 and 3 µM H3K27me3 in the absence of the test compound, and a negative control consisted of 30 µM SAM, 1.5 µM H3K27me1 and 3 μM H3K27me3 only. Each reaction was incubated at room temperature for 120 min, then stopped by addition of 3 μL per of quench solution (2.5% TFA with 320 nM d4-SAH). The reaction mixture was centrifuged (Eppendorf centrifuge 5810, Rotor A-4-62) for 2 min at 2000 rpm and read on an API 4000 triple quadrupole mass spec with Turbulon Spray (Applied Biosystem) coupled with Prominence UFLC (Shimadzu). The levels of SAH production were normalized based on the values coming from the positive and negative controls to give percent enzyme activities. The data were fit to a dose response equation using the program Helios to get the […] values of the test compound.

[2] = system: H3K27 methylation in G401 cell; assay: ELISA (H3K27 methylation) assay; type: cell-based; conditions: Homo sapiens, G-401, 48 h, cultured 48 h with compound, normalized using H3 signal
Procedure: ELISA (H3K27 methylation) assay
Representative compounds of the invention were serially and separately diluted 3-fold in DO to obtain a total of eight or twelve concentrations. Then the compounds were added to G401 cell cultured in 384-well plate at 1:500 dilution to obtain the highest concentration of 20 μM. The cells were further cultured for 48 h before ELISA procedure.
Histone extraction: Cells, in 384-well plate, were washed with PBS (10 x PBS buffer (80 g NaCl (Sigma, S3014), 2 g KCl (Sigma, 60128), 14.4 g Na2HPO4 (Sigma, S5136), 2.4 g KH2PO4 (Sigma, P9791) to 1 L water, pH to 7.4) and lysed with the addition of lysis buffer (0.4N HCl; 45 μl per well). The plate was gently agitated at 4° C. for 30 min. The cell lysate was neutralized with neutralization buffer (0.5 M sodium phosphate dibasic, pH 12.5. 1 mM DTT; 36 µL per well). The plate was agitated to ensure the lysates were well mixed prior to the ELISA protocol.
ELISA protocol: Cell lysates were transferred to the wells of a 384-well plate and the final volume was adjusted to 50 μL per well with PBS. The plate was sealed, centrifuged at 2,000 rpm for 2 min and incubated at 4° C. for about 16 h. The plate was washed with TBST buffer (1 x TBS (10x TBS: 24.2 g Tris (Sigma, T6066), 80 g NaCl (Sigma, S3014) to 1 L of water and adjust pH to 7.6 with HCl) with 0.1% Tween-20). Blocking buffer (TBST, 5% BSA; 50 µL per well) was added and the plate was incubated for 1 h at rt. The blocking buffer was removed and primary antibody was added (30 μL per well). The following dilutions were performed with blocking buffer: for anti-H3K27me3 antibody (Cell Signaling Technology, #9733), dilution was 1:1000; for anti-H3K27me2 antibody (Cell Signaling Technology, #9288), dilution was 1:100; for anti-H3 antibody (Abcam, Cat #24834), dilution was 1:1000. The primary antibody was incubated in the plate at rt for 1 h. The wells were washed with TBST and incubated with secondary antibody for 1 h at rt. For secondary antibodies, the following dilutions were carried out with blocking buffer: anti-rabbit antibody (Jackson ImmunoResearch, #111-035-003), dilution was 1:2000; and anti-mouse antibody (Cell signaling technology, #7076), dilution was 1:1000.
After 1 h of incubation at rt, the wells were washed with TBST. ECL substrate (Pierce, #34080) was added at 30 μL per well and the plates were centrifuged at 2,000 rpm for 2 min. The signal was read using a PerkinElmer Envision Reader. The H3K27 methylation readouts were normalized using H3 signal and then percentage inhibition was calculated against the samples treated with DO. The data were fit to a dose response curve using the program Helios to get the IC50 values of the test compound.

wild type PRC2 (wtPRC2) complex, sequence (Q15910 whole entry): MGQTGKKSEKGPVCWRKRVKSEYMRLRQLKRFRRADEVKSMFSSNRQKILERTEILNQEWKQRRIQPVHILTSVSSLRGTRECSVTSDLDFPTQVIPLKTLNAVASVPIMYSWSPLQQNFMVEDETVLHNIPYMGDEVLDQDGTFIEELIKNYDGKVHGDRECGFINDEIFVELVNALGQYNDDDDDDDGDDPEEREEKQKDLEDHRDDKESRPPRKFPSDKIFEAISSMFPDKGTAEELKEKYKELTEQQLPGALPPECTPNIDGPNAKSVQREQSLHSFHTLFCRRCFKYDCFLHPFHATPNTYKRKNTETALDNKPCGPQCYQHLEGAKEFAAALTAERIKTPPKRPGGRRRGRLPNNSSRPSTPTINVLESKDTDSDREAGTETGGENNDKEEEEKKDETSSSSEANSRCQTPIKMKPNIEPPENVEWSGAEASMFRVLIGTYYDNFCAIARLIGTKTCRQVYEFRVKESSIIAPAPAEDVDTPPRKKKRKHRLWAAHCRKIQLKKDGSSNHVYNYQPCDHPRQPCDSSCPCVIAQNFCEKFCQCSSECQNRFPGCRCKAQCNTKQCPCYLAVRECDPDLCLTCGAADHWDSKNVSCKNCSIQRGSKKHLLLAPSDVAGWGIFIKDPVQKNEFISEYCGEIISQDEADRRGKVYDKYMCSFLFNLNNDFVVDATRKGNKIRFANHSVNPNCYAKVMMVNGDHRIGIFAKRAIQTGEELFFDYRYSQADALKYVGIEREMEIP
wild type PRC2 (wtPRC2) complex, sequence (O75530 whole entry partner): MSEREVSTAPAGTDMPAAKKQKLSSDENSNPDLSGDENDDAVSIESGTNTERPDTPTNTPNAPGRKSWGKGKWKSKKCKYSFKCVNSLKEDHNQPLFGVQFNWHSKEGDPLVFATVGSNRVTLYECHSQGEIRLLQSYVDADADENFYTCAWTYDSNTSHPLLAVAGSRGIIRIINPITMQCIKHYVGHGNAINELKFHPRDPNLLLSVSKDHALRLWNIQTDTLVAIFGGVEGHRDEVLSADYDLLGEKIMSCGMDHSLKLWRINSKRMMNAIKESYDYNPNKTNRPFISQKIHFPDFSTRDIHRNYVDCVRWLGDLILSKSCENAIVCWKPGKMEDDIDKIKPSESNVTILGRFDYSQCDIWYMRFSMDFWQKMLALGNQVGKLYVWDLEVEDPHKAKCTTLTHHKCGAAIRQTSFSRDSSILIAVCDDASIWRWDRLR
wild type PRC2 (wtPRC2) complex, sequence (Q15022 whole entry partner): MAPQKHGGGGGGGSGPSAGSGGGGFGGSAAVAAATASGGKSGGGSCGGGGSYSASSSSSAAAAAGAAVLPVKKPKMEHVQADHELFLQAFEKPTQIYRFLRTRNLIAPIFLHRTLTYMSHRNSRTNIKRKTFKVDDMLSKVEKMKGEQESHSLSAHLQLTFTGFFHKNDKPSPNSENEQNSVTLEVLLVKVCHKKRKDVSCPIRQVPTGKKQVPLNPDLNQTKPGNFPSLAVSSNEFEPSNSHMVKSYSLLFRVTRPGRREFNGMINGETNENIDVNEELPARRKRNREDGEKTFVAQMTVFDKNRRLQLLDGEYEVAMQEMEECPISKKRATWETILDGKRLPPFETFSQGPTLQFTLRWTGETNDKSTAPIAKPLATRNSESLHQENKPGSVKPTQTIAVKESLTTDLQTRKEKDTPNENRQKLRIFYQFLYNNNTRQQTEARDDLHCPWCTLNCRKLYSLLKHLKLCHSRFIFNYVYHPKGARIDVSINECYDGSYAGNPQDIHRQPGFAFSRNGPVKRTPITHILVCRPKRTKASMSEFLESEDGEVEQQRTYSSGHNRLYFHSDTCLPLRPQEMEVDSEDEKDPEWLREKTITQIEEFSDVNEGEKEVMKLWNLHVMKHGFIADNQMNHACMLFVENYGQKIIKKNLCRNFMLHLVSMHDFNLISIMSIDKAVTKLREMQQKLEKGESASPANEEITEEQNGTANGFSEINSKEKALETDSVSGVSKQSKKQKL

IC50 [1]: < 50 nM
SMILES: Cc1ccc2ccc(N[C@H]3CC[C@H](CNc4ccc(CC(=O)NC5COC5)cn4)CC3)nc2c1Cl [Example 15, 2-(6-((((1r,4r)-4-((8-chloro-7-methylquinolin-2-yl)amino)cyclohexyl)methyl)amino)pyridin-3-yl)-N-(oxetan-3-yl)acetamide]
IC50 [2]: < 10 nM
